What all share (format): in vivo
The subject of one data set is ANGPTL7 WT mice. Description: DEX-Ac-induced ocular hypertension in ANGPTL7 WT mice (IOP measurement). To be noted: weekly periocular CF injections of DEX-Ac in both eyes, versus vehicle-treated, week 1 to 6. An excerpt: (§1) IOP measurements of DEX-Ac-treated (n=18) versus vehicle-treated (n=6) mice show IOP elevation from week 1 to 6; **p<0.01, ***p<0.001, ****p<0.0001.

The next data set concerns ANGPTL7 KO mice. Description: DEX-Ac-induced ocular hypertension in ANGPTL7 KO mice (IOP measurement). Conditions: weekly periocular CF injections of DEX-Ac in both eyes, versus vehicle-treated, week 1 to week 6.
From the text: as §1

The test system of the next data set is ANGPTL7. Description: ANGPTL7 siRNA in DEX-Ac-induced ocular hypertension (steroid-induced IOP) in wild-type mice. Conditions: WT mice; weekly periocular CF injections of DEX-Ac to both eyes; compared with vehicle-treated mice; starting 6-days post-injection. The source says:
dsRNA were further assessed for their ability to reduce steroid induced IOP in vivo in wild-type mice. […] Mice were divided into following groups as shown in FIG. 4: a) Vehicle (n=4), b) Vehicle+PBS (n=6), c) DEX-Ac (n=12), d) DEX-Ac+siRNA #3 (n=14), and e) DEX-Ac+siRNA #5 (n=14). […] At Day 22, siRNA targeting ANGPTL7 (#3 and #5) were intravitreally injected into groups: d and e (DEX-Ac+siRNA #3 and DEX-Ac+siRNA #5) and IOP measurements continued to be recorded.

For 1 molecule, IOP elevation results are on record in US11865134B2, “Treatment of inflammation with glucocorticoids and angiopoietin-like 7 (ANGPTL7) inhibitors” (Regeneron Pharmaceuticals, Inc., priority 2021, dated 2024).

SMILES strings stand for the structures.

As to `CC(=O)OCC(=O)[C@@]1(O)[C@H](C)C[C@H]2[C@@H]3CCC4=CC(=O)C=C[C@]4(C)[C@@]3(F)[C@@H](O)C[C@@]21C` [DEX-Ac, dexamethasone-21-acetate], the IOP elevation entry is “significantly elevated IOP” with ANGPTL7 WT mice; “did not elevate IOP” with ANGPTL7 KO mice; “rapid and significantly higher” in the data set with ANGPTL7.
